# According to patent US20260273078A1, “AN INJECTABLE DELIVERY SYSTEM FOR LONG-ACTING ADMINISTRATION OF DRUGS” (priority 2023, published 2026):
# Entries after “also recorded” stand apart in the source; their conditions may differ.
# Key:
# proteinase K = proteinase K (Parengyodontium album, UniProt P06873); experiment: Biostability after incubation with proteinase K over 28 days; format: in vitro ADME; conditions: up to 28 days
# Source text: L-peptide NapFFKY(p)G-OH (small circle) and D-peptide NapffkY(p)G-OH (upright triangle) are peptide-only controls that also form hydrogels in response to phosphatase enzymes.
# HIV = conditions: cited from earlier work
# proteinase K, sequence (P06873 106-384): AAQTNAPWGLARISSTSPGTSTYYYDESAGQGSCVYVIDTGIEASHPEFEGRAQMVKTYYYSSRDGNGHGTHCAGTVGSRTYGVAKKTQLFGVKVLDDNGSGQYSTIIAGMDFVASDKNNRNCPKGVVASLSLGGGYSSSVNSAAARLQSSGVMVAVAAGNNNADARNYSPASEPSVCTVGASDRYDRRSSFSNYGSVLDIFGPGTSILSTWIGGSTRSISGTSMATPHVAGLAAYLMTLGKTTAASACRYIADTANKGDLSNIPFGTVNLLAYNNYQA
Compound,Biostability in the presence of proteinase-K (in words) (proteinase K),IC50 range (HIV) [µg/mL]
"NCCCC[C@H](NC(=O)[C@H](Cc1ccccc1)NC(=O)[C@H](Cc1ccccc1)NC(=O)Cc1ccc2ccccc2c1)C(=O)N[C@@H](Cc1ccc(OP(=O)(O)O)cc1)C(=O)NCC(=O)O [L-peptide, NapFFKY(p)G-OH, reference compound]","degrades rapidly, within hours",
(NPhe)4GGGGKY(p)-OH [PP4G L-peptide variant],breaks down between days; also recorded: breaks down within days,
Cc1cn([C@H]2C[C@H](N=[N+]=[N-])[C@@H](CO)O2)c(=O)[nH]c1=O [zidovudine],,0.03 to 0.13
"NapffkY(p)G-OH [D-peptides, reference compound]",significant stability after 28 days,
